Measurements taken from ChEMBL document CHEMBL1123051, “In the search for new anticancer drugs. 13. Phosphonic and phosphinic analogues of ornithine” (1985).
The source made the active and inactive calls. The calls are words filed in the database; no cut-off is given here.

Columns and labels:
Mus musculus [1] = assay: Compound was tested against P388 Leukemia cells in mouse at the dose of 150 mg/kg ip, activity expressed as T/C; format: functional
Mus musculus [2] = assay: Compound was tested against P388 Leukemia cells in mouse at the dose of 50 mg/kg ip, activity expressed as T/C; format: functional
[3] = target: T1, Ornithine decarboxylase (Rattus norvegicus) (UniProt P09057); assay: Compound was tested for its inhibition against ornithine decarboxylase from rat liver at low concentration; NA means not active
T1 sequence (whole entry): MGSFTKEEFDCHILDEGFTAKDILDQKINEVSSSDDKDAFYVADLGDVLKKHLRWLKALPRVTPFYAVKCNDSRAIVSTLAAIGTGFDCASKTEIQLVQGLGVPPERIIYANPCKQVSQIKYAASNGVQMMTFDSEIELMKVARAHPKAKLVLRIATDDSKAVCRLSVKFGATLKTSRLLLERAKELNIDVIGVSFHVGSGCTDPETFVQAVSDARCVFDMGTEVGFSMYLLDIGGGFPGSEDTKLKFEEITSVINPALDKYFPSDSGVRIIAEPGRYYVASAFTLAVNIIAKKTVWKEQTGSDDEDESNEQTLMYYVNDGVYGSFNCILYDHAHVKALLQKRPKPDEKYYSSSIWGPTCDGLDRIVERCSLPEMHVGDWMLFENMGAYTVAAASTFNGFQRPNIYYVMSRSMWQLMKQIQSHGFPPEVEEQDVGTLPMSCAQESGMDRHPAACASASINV

CCP(=O)(O)C(C)(N)CCCN.Cl (stereo unspecified)
T/C (Mus musculus [1]): 98 | T/C (Mus musculus [2]): 98 | Activity [3]: inactive

CCP(=O)(O)C(N)CCCN.Cl (stereo unspecified)
T/C (Mus musculus [1]): 100 | T/C (Mus musculus [2]): 100 | Activity [3]: inactive
